Experimental data: ChEMBL document CHEMBL5252638, “Novel triphenylphosphonium amphiphilic conjugates of glycerolipid type: synthesis, cytotoxic and antibacterial activity, and targeted cancer cell delivery” (RSC Med Chem, 2023)

Key:
[1] = Selectivity index, ratio of IC50 for human WI-38 cells to IC50 for human T98G cells; format: toxicity; settings: WI-38 cells and T98G cells, read-out: Ratio IC50
[2] = Cytotoxicity against human WI-38 cells assessed as number of viable cells measured after 48 hrs by MTT based colorimetric assay; format: toxicity, cell-based
M-HeLa = assay: Cytotoxicity against human HelaM cells assessed as number of viable cells measured after 48 hrs by MTT based colorimetric assay; format: functional, cell-based
A549 = assay: Cytotoxicity against human A549 cells assessed as number of viable cells measured after 48 hrs by MTT based colorimetric assay; format: functional, cell-based; settings: A549, 48 h
HuTu80 [3] = assay: Cytotoxicity against human HuTu80 cells assessed as number of viable cells measured after 48 hrs by MTT based colorimetric assay; format: functional, cell-based; settings: HuTu80, 48 h
Homo sapiens [4] = species: Homo sapiens; assay: Selectivity index, ratio of IC50 for human WI-38 cells to IC50 for human HuTu80 cells
T98G = assay: Cytotoxicity against human T98G cells assessed as number of viable cells measured after 48 hrs by MTT based colorimetric assay; format: functional, cell-based
[5] = Selectivity index, ratio of IC50 for human WI-38 cells to IC50 for human MCF7 cells; format: toxicity; settings: WI-38 cells and MCF7 cells, read-out: Ratio IC50
MCF7 = assay: Cytotoxicity against human MCF7 cells assessed as number of viable cells measured after 48 hrs by MTT based colorimetric assay; format: functional, cell-based; settings: MCF7, 48 h
PC-3 = assay: Cytotoxicity against human PC-3 cells assessed as number of viable cells measured after 48 hrs by MTT based colorimetric assay; format: functional, cell-based; settings: PC-3, 48 h
[6] = Selectivity index, ratio of IC50 for human WI-38 cells to IC50 for human A549 cells; format: toxicity; settings: WI-38 cells and A549 cells, read-out: Ratio IC50
HuTu80 [7] = assay: Induction of apoptosis in human HuTu80 cells assessed as late apoptotic cells at 2 uM incubated for 48 hrs by annexin V FITC/propidium iodide staining based flow cytometry analysis (reference value: 0.00%); format: functional
[8] = Selectivity index, ratio of IC50 for human WI-38 cells to IC50 for human PC-3 cells; format: toxicity; settings: WI-38 cells and PC-3 cells, read-out: Ratio IC50
HepG2 = assay: Cytotoxicity against human HepG2 cells assessed as number of viable cells measured after 48 hrs by MTT based colorimetric assay; format: functional, cell-based; settings: HepG2, 48 h
SK-OV-3 = assay: Cytotoxicity against human SK-OV-3 cells assessed as number of viable cells measured after 48 hrs by MTT based colorimetric assay; format: functional, cell-based; settings: SK-OV-3, 48 h
Enterococcus faecalis [9] = assay: Antimicrobial activity against Enterococcus faecalis ATCC 29212 by serial microdilution method; format: functional
HuTu80 [10] = assay: Induction of apoptosis in human HuTu80 cells assessed as viable cells at 1 uM incubated for 48 hrs by annexin V FITC/propidium iodide staining based flow cytometry analysis (reference value: 93.71%); format: functional; settings: read-out: Activity
HuTu80 [11] = assay: Induction of apoptosis in human HuTu80 cells assessed as necrotic cells at 1 uM incubated for 48 hrs by annexin V FITC/propidium iodide staining based flow cytometry analysis (reference value: 4.56%); format: functional
DU-145 = assay: Cytotoxicity against human DU-145 cells assessed as number of viable cells measured after 48 hrs by MTT based colorimetric assay; format: functional, cell-based; settings: DU-145, 48 h
HuTu80 [12] = assay: Induction of apoptosis in human HuTu80 cells assessed as early apoptotic cells at 2 uM incubated for 48 hrs by annexin V FITC/propidium iodide staining based flow cytometry analysis (reference value: 1.74%); format: functional
Staphylococcus aureus [13] = assay: Antimicrobial activity against Staphylococcus aureus ATCC 6538 P FDA 209P by serial microdilution method; format: functional
HuTu80 [14] = assay: Induction of cell cycle arrest in human HuTu80 cells assessed as accumulation of cell at G1/G0 phase at 2 uM measured after 48 hrs by propidium iodide staining based analysis (reference value: 72%); format: functional
Staphylococcus aureus [15] = assay: Bactericidal against Staphylococcus aureus ATCC 6538 P FDA 209P by serial microdilution method; format: functional
PANC-1 = assay: Cytotoxicity against human PANC-1 cells assessed as number of viable cells measured after 48 hrs by MTT based colorimetric assay; format: functional, cell-based; settings: PANC-1, 48 h
HuTu80 [16] = assay: Induction of mitochondrial membrane potential loss in human HuTu80 cells assessed as J-monomer green fluorescence intensity at 10 uM incubated for 24 hrs by JC10 staining based flow cytometry method (reference value: 5.7%); format: functional
HuTu80 [17] = assay: Induction of mitochondrial membrane potential loss in human HuTu80 cells assessed as J-aggregates red fluorescence intensity at 5 uM incubated for 24 hrs by JC10 staining based flow cytometry method (reference value: 94.4%); format: functional
HuTu80 [18] = assay: Induction of ROS production in human HuTu80 cells assessed as increase in fluorescence intensity at 5 uM measured after 48 hrs by flow cytometry based analysis (reference value: 380); format: functional
Homo sapiens [19] = species: Homo sapiens; assay: Selectivity index, ratio of IC50 for human WI-38 cells to IC50 for human DU-145 cells
HuTu80 [20] = assay: Induction of apoptosis in human HuTu80 cells assessed as early apoptotic cells at 1 uM incubated for 48 hrs by annexin V FITC/propidium iodide staining based flow cytometry analysis (reference value: 1.74%); format: functional
Bacillus cereus [21] = assay: Bactericidal activity against Bacillus cereus ATCC 10702 NCTC 8035 by serial microdilution method; format: functional
HuTu80 [22] = assay: Induction of cell cycle arrest in human HuTu80 cells assessed as accumulation of cell at G2/M phase at 2 uM measured after 48 hrs by propidium iodide staining based analysis (reference value: 18.7%); format: functional
[23] = Cytotoxicity against human Chang liver cells assessed as number of viable cells measured after 48 hrs by MTT based colorimetric assay; format: toxicity, cell-based
HuTu80 [24] = assay: Induction of apoptosis in human HuTu80 cells assessed as viable cells at 2 uM incubated for 48 hrs by annexin V FITC/propidium iodide staining based flow cytometry analysis (reference value: 93.71%); format: functional; settings: read-out: Activity
HuTu80 [25] = assay: Induction of cell cycle arrest in human HuTu80 cells assessed as accumulation of cell at S phase at 1 uM measured after 48 hrs by propidium iodide staining based analysis (reference value: 8.1%); format: functional
HuTu80 [26] = assay: Induction of cell cycle arrest in human HuTu80 cells assessed as accumulation of cell at G2/M phase at 1 uM measured after 48 hrs by propidium iodide staining based analysis (reference value: 18.7%); format: functional
Bacillus cereus [27] = assay: Antimicrobial activity against Bacillus cereus ATCC 10702 NCTC 8035 by serial microdilution method; format: functional
HuTu80 [28] = assay: Induction of cell cycle arrest in human HuTu80 cells assessed as accumulation of cell at G1/G0 phase at 1 uM measured after 48 hrs by propidium iodide staining based analysis (reference value: 72%); format: functional
HuTu80 [29] = assay: Induction of cell cycle arrest in human HuTu80 cells assessed as accumulation of cell at S phase at 2 uM measured after 48 hrs by propidium iodide staining based analysis (reference value: 8.1%); format: functional
HuTu80 [30] = assay: Induction of ROS production in human HuTu80 cells assessed as increase in fluorescence intensity at 10 uM measured after 48 hrs by flow cytometry based analysis (reference value: 380); format: functional
HuTu80 [31] = assay: Induction of mitochondrial membrane potential loss in human HuTu80 cells assessed as J-aggregates red fluorescence intensity at 10 uM incubated for 24 hrs by JC10 staining based flow cytometry method (reference value: 94.4%); format: functional
HuTu80 [32] = assay: Induction of apoptosis in human HuTu80 cells assessed as late apoptotic cells at 1 uM incubated for 48 hrs by annexin V FITC/propidium iodide staining based flow cytometry analysis (reference value: 0.00%); format: functional
HuTu80 [33] = assay: Induction of apoptosis in human HuTu80 cells assessed as necrotic cells at 2 uM incubated for 48 hrs by annexin V FITC/propidium iodide staining based flow cytometry analysis (reference value: 4.56%); format: functional
HuTu80 [34] = assay: Induction of mitochondrial membrane potential loss in human HuTu80 cells assessed as J-monomer green fluorescence intensity at 5 uM incubated for 24 hrs by JC10 staining based flow cytometry method (reference value: 5.7%); format: functional
Pseudomonas aeruginosa [35] = assay: Antimicrobial activity against Pseudomonas aeruginosa ATCC 9027 by serial microdilution method; format: functional
Homo sapiens [36] = species: Homo sapiens; assay: Selectivity index, ratio of IC50 for human WI-38 cells to IC50 for human PANC-1 cells
Escherichia coli [37] = assay: Antimicrobial activity against Escherichia coli ATCC 25922 by serial microdilution method; format: functional
[38] = Selectivity index, ratio of IC50 for human WI-38 cells to IC50 for human HepG2 cells; format: toxicity; settings: WI-38 cells and HepG2 cells, read-out: Ratio IC50
Enterococcus faecalis [39] = assay: Bactericidal activity against Enterococcus faecalis ATCC 29212 by serial microdilution method; format: functional
Escherichia coli [40] = assay: Bactericidal activity against Escherichia coli ATCC 25922 by serial microdilution method; format: functional
Homo sapiens [41] = species: Homo sapiens; assay: Selectivity index, ratio of IC50 for human WI-38 cells to IC50 for human SK-OV-3 cells
Pseudomonas aeruginosa [42] = assay: Bactericidal against Pseudomonas aeruginosa ATCC 9027 by serial microdilution method; format: functional

C=C(C)[C@@H]1CC[C@]2(COCC(O)COC(=O)CCCC[P+](c3ccccc3)(c3ccccc3)c3ccccc3)CC[C@]3(C)[C@H](CC[C@@H]4[C@@]5(C)CC[C@H](O)C(C)(C)[C@@H]5CC[C@]43C)[C@@H]12 (stereo partly specified)
selectivity ratio [1]: 1.1 | IC50 at 48 h [2]: 4.7 µM | IC50 (M-HeLa): 11.5 µM | IC50 (A549): 3.1 µM | IC50 (HuTu80 [3]): 0.3 µM | Ratio IC50 (Homo sapiens [4]): 15.7 | IC50 (T98G): 4.1 µM | selectivity ratio [5]: 3.1 | IC50 (MCF7): 1.5 µM | IC50 (PC-3): 7.9 µM | selectivity ratio [6]: 1.5

C=C(C)[C@@H]1CC[C@]2(COC(=O)CCC(=O)OC(COC(=O)CCCCCCC/C=C\CCCCCCCC)COC(=O)CCCC[P+](c3ccccc3)(c3ccccc3)c3ccccc3)CC[C@]3(C)[C@H](CC[C@@H]4[C@@]5(C)CC[C@H](O)C(C)(C)[C@@H]5CC[C@]43C)[C@@H]12.[Br-] (stereo partly specified)
selectivity ratio [1]: 1.7 | IC50 at 48 h [2]: 36.3 µM | Activity (HuTu80 [7]): 12% | selectivity ratio [8]: 1.1 | IC50 (HepG2): 60 µM | IC50 (SK-OV-3): 57 µM | MIC (Enterococcus faecalis [9]): 125 µM | viability at 1 µM (HuTu80 [10]): 76.1% | Activity (HuTu80 [11]): 18.03% | IC50 (DU-145): 15.5 µM | Activity (HuTu80 [12]): 2.5% | MIC (Staphylococcus aureus [13]): 31.3 µM | Activity (HuTu80 [14]): 87% | MBC (Staphylococcus aureus [15]): 125 µM | IC50 (M-HeLa): 51 µM | IC50 (PANC-1): 35.7 µM | Activity (HuTu80 [16]): 9.7% | Activity (HuTu80 [17]): 84.2% | IC50 (A549): 54.2 µM | Flu intensity (HuTu80 [18]): 500 | Ratio IC50 (Homo sapiens [19]): 2.3 | Activity (HuTu80 [20]): 1.29% | MBC (Bacillus cereus [21]): 125 µM | Activity (HuTu80 [22]): 1.8% | IC50 at 48 h [23]: 11.2 µM | viability at 2 µM (HuTu80 [24]): 51% | Activity (HuTu80 [25]): 2.8% | IC50 (HuTu80 [3]): 1.7 µM | Ratio IC50 (Homo sapiens [4]): 21.4 | IC50 (T98G): 22 µM | Activity (HuTu80 [26]): 2.8% | selectivity ratio [5]: 2.2 | MIC (Bacillus cereus [27]): 15.6 µM | Activity (HuTu80 [28]): 84% | Activity (HuTu80 [29]): 1.9% | Flu intensity (HuTu80 [30]): 840 | IC50 (MCF7): 16.4 µM | IC50 (PC-3): 32.3 µM | Activity (HuTu80 [31]): 90.3% | Activity (HuTu80 [32]): 4.58% | Activity (HuTu80 [33]): 34.5% | Activity (HuTu80 [34]): 15.9%

CC(C)C1=CC2=CC[C@@H]3[C@](C)(CCC[C@@]3(C)C(=O)OCC(O)COC(=O)CCCC[P+](c3ccccc3)(c3ccccc3)c3ccccc3)[C@H]2CC1 (stereo partly specified)
IC50 at 48 h [2]: 24.2 µM | selectivity ratio [8]: 2.2 | IC50 (HepG2): 21.6 µM | MIC (Pseudomonas aeruginosa [35]): 250 µM | IC50 (SK-OV-3): 14.4 µM | MIC (Enterococcus faecalis [9]): 7.8 µM | Ratio IC50 (Homo sapiens [36]): 1.8 | IC50 (DU-145): 2.8 µM | MIC (Staphylococcus aureus [13]): 31.3 µM | MIC (Escherichia coli [37]): 250 µM | MBC (Staphylococcus aureus [15]): 250 µM | selectivity ratio [38]: 1.1 | IC50 (M-HeLa): 27.3 µM | MBC (Enterococcus faecalis [39]): 250 µM | IC50 (PANC-1): 13.1 µM | IC50 (A549): 26.2 µM | MBC (Escherichia coli [40]): 500 µM | Ratio IC50 (Homo sapiens [19]): 8.6 | Ratio IC50 (Homo sapiens [41]): 1.7 | IC50 at 48 h [23]: 6 µM | IC50 (HuTu80 [3]): 2.2 µM | Ratio IC50 (Homo sapiens [4]): 11 | IC50 (T98G): 9.8 µM | selectivity ratio [5]: 1.9 | MIC (Bacillus cereus [27]): 3.9 µM | IC50 (MCF7): 12.5 µM | IC50 (PC-3): 11 µM | MBC (Pseudomonas aeruginosa [42]): 500 µM
